Experimental data as given in ChEMBL document CHEMBL6127128, “Discovery of the First-in-Class Dual-Target ROCK/HDAC Inhibitor with Potent Antitumor Efficacy in Vivo That Trigger Antitumor Immunity” (J Med Chem, 2024).
Converted amounts (≈) assume the structure as drawn. The source made the active and inactive calls. The calls are words filed in the database; no cut-off is given here.

Experiments:
[1] = Toxicity against Balb/c mouse implanted with mouse 4T1 cells assessed as effect on morphological changes in heart at 25 to 50 mg/kg, po administered daily for 15 days by Hematoxylin-Eosin staining based analysis; assay type: organism-based; settings: in vivo, 360 h, dose 25-50 mg/kg, time 15 day
Histone deacetylase 1 = Histone deacetylase 1 (Homo sapiens, UniProt Q13547); experiment: Inhibition of HDAC1 (unknown origin) using Ac-Leu-Gly-Lys(Ac)-AMC as substrate preincubated for 5 mins followed by substrate addition for 30 mins and measured following trypsin addition for 30 mins by fluorescence based analysis
[2] = Half-life in Balb/c mouse at 1 mg/kg, iv measured for 24 hrs by LC-MS/MS analysis; assay type: ADME, organism-based; settings: in vivo
4T1 [3] = experiment: Antitumor immunity against mouse 4T1 cells implanted in Balb/c mouse assessed as increase in CD40+ dendritic cells in tumor tissue at 25 mg/kg, po administered daily for 15 days by immunohistochemistry; assay type: functional, organism-based; settings: time 15.0 day
MDA-MB-231 [4] = experiment: Induction of immunogenic cell death-associated DAMP release in human MDA-MB-231 cells assessed as decrease in HMGB1 expression level at 1 to 10 uM incubated for 24 hrs by western blot analysis; assay type: functional, cell-based; settings: dose 1-10 µM
4T1 [5] = experiment: Antitumor immunity against mouse 4T1 cells implanted in Balb/c mouse assessed as increase in CD8+ T cells in tumor tissue at 50 mg/kg, po administered daily for 15 days by flow cytometry relative to SAHA; assay type: functional; settings: time 15 day
Histone deacetylase 11 = biological target: T1, Histone deacetylase 11 (Homo sapiens, UniProt Q96DB2); experiment: Inhibition of HDAC11 (unknown origin) using Ac-Leu-Gly-Lys(Ac)-AMC as substrate preincubated for 5 mins followed by substrate addition for 30 mins and measured following trypsin addition for 30 mins by fluorescence based analysis
T1 sequence (Q96DB2 whole entry): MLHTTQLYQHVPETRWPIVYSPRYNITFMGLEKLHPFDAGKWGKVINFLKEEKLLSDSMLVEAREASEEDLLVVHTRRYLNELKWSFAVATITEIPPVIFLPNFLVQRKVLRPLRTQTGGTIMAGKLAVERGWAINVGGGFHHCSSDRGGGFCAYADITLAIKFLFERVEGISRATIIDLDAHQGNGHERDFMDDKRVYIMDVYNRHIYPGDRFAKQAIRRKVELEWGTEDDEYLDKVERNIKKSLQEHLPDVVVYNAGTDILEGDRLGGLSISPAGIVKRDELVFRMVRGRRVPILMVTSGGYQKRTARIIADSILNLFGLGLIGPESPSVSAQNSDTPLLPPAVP

Mus musculus = experiment: Induction of immunogenic cell death-associated DAMP release in tumor of Balb/c mouse implanted with mouse 4T1 cells assessed as increase in CRT expression at 25 to 50 mg/kg, po administered daily for 15 days by immunofluorescence analysis; assay type: functional, organism-based; settings: dose 25-50 mg/kg, time 15.0 day
MDA-MB-231 [6] = experiment: Induction of immunogenic cell death-associated DAMP release in human MDA-MB-231 cells assessed as increase in CRT expression level by measuring increase in green fluorescence intensity at 1 to 10 uM incubated for 24 hrs by DAPI staining based immunofluorescence analysis; assay type: functional; settings: dose 1-10 µM
[7] = Lipophilicity, log D of the compound at pH 7.4; assay type: physicochemical; settings: buffer
4T1 [8] = experiment: Antitumor activity against mouse 4T1 cells implanted in Balb/c mouse assessed as inhibition of tumor growth rate at 25 mg/kg, po administered daily for 15 days; assay type: functional; settings: 4T1, 360 h, time 15 day, read-out: TGI
[9] = AUC (0 to infinity) in Balb/c mouse at 50 mg/kg, po measured for 24 hrs by LC-MS/MS analysis; assay type: ADME, organism-based; settings: in vivo
4T1 [10] = experiment: animal or person; assay type: functional; settings: Mus musculus, 4T1, 360 h, route po, time 15 day, read-out: TGI
Description: Antitumor activity against mouse 4T1 cells implanted in Balb/c mouse assessed as inhibition of tumor growth rate at 50 mg/kg, po administered daily for 15 days

Histone deacetylase 9 = Histone deacetylase 9 (Homo sapiens, UniProt Q9UKV0); experiment: Inhibition of HDAC9 (unknown origin) using Ac-Leu-Gly-Lys(tfa)-AMC as substrate preincubated for 5 mins followed by substrate addition for 30 mins and measured following trypsin addition for 30 mins by fluorescence based analysis
Histone deacetylase 4 = Histone deacetylase 4 (Homo sapiens, UniProt P56524); experiment: Inhibition of HDAC4 (unknown origin) using Ac-Leu-Gly-Lys(tfa)-AMC as substrate preincubated for 5 mins followed by substrate addition for 30 mins and measured following trypsin addition for 30 mins by fluorescence based analysis
4T1 [11] = experiment: Antitumor immunity against mouse 4T1 cells implanted in Balb/c mouse assessed as increase in CD8+ T cells in tumor tissue at 25 mg/kg, po administered daily for 15 days by flow cytometry; assay type: functional, organism-based; settings: time 15.0 day
[12] = Aqueous solubility of the compound in aqueous buffer at pH 7.4; assay type: physicochemical
Histone deacetylase 8 = biological target: T2, Histone deacetylase 8 (Homo sapiens, UniProt Q9BY41); experiment: Inhibition of HDAC8 (unknown origin) using Ac-Leu-Gly-Lys(tfa)-AMC as substrate preincubated for 5 mins followed by substrate addition for 30 mins and measured following trypsin addition for 30 mins by fluorescence based analysis
T2 sequence (Q9BY41 whole entry): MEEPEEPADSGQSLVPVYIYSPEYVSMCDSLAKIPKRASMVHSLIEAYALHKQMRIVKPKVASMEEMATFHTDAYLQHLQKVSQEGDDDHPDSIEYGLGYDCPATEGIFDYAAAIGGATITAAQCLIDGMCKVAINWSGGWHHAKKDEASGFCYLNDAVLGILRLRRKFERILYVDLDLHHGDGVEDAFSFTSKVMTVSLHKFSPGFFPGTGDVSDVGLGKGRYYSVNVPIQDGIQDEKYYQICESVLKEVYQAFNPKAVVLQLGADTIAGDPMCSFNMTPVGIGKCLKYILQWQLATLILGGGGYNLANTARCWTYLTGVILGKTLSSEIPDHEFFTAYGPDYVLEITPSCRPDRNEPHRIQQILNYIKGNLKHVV

MDA-MB-231 [13] = experiment: Induction of immunogenic cell death-associated DAMP release in human MDA-MB-231 cells assessed as increase in CRT expression level at 1 to 10 uM incubated for 24 hrs by western blot analysis; assay type: functional, cell-based; settings: dose 1-10 µM
4T1 [14] = experiment: Antitumor immunity against mouse 4T1 cells implanted in Balb/c mouse assessed as increase in CD40+ dendritic cells in tumor tissue at 50 mg/kg, po administered daily for 15 days by immunohistochemistry relative to SAHA; assay type: functional; settings: time 15 day
4T1 [15] = experiment: Antitumor immunity against mouse 4T1 cells implanted in Balb/c mouse assessed as increase in CD86+ dendritic cells in tumor tissue at 50 mg/kg, po administered daily for 15 days by immunohistochemistry relative to SAHA; assay type: functional; settings: time 15 day
[16] = Toxicity against Balb/c mouse implanted with mouse 4T1 cells assessed as effect on morphological changes in spleen at 25 to 50 mg/kg, po administered daily for 15 days by Hematoxylin-Eosin staining based analysis; assay type: organism-based; settings: in vivo, 360 h, dose 25-50 mg/kg, time 15 day
Histone deacetylase 3 = Histone deacetylase 3 (Homo sapiens, UniProt O15379); experiment: Inhibition of HDAC3 (unknown origin) using Ac-Leu-Gly-Lys(Ac)-AMC as substrate preincubated for 5 mins followed by substrate addition for 30 mins and measured following trypsin addition for 30 mins by fluorescence based analysis
Sequence of Histone deacetylase 3 (O15379 whole entry): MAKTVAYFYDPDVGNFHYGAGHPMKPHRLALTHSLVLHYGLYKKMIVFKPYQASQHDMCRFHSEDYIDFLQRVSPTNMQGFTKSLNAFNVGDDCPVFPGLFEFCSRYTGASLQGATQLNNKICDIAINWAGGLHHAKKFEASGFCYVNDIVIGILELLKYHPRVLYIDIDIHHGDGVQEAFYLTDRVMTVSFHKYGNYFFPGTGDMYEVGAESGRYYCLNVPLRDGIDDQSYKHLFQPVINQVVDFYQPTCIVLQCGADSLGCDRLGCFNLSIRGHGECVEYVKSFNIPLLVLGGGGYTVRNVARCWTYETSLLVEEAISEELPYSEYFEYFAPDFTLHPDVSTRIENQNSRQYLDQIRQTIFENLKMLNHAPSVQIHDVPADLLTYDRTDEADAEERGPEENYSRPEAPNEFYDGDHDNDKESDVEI

Sequence of Histone deacetylase 1 (Q13547 whole entry): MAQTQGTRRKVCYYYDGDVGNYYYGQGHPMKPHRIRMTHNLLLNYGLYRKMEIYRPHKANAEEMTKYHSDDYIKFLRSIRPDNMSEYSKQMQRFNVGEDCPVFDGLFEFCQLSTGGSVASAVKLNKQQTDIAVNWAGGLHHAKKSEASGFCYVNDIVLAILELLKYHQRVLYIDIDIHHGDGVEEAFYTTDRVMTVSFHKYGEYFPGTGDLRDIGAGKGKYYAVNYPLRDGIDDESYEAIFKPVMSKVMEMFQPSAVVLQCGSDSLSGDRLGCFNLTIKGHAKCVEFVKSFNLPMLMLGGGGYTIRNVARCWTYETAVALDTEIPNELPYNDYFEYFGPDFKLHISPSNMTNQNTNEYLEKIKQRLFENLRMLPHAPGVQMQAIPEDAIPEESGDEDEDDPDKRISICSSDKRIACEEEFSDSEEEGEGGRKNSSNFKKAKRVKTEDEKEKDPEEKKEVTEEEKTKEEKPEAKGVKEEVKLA
Sequence of Histone deacetylase 9 (Q9UKV0 whole entry): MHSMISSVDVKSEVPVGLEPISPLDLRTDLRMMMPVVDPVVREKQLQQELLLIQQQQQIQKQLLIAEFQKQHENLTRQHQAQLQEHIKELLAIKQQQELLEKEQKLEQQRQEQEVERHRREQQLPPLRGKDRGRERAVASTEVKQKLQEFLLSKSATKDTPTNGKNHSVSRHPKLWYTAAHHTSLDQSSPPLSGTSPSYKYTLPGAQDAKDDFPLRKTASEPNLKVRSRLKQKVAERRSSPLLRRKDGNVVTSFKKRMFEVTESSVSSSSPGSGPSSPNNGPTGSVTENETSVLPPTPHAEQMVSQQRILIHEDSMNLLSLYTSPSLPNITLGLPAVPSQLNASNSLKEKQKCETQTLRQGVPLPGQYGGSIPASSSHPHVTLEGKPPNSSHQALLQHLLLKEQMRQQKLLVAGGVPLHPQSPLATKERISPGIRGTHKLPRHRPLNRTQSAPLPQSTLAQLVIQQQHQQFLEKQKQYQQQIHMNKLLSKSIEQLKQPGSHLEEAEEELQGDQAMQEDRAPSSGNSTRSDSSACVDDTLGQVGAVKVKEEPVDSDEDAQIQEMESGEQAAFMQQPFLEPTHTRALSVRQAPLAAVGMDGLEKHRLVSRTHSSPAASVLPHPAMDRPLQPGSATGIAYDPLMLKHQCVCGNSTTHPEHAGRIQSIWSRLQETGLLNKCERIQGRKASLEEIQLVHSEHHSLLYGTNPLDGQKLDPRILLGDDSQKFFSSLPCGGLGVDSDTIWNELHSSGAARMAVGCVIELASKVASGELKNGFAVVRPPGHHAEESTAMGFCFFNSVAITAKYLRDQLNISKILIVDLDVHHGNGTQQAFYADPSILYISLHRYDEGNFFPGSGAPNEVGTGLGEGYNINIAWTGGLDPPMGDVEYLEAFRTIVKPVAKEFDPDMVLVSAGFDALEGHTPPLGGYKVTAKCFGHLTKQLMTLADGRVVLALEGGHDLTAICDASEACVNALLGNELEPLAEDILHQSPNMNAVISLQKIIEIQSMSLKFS
Sequence of Histone deacetylase 4 (P56524 whole entry): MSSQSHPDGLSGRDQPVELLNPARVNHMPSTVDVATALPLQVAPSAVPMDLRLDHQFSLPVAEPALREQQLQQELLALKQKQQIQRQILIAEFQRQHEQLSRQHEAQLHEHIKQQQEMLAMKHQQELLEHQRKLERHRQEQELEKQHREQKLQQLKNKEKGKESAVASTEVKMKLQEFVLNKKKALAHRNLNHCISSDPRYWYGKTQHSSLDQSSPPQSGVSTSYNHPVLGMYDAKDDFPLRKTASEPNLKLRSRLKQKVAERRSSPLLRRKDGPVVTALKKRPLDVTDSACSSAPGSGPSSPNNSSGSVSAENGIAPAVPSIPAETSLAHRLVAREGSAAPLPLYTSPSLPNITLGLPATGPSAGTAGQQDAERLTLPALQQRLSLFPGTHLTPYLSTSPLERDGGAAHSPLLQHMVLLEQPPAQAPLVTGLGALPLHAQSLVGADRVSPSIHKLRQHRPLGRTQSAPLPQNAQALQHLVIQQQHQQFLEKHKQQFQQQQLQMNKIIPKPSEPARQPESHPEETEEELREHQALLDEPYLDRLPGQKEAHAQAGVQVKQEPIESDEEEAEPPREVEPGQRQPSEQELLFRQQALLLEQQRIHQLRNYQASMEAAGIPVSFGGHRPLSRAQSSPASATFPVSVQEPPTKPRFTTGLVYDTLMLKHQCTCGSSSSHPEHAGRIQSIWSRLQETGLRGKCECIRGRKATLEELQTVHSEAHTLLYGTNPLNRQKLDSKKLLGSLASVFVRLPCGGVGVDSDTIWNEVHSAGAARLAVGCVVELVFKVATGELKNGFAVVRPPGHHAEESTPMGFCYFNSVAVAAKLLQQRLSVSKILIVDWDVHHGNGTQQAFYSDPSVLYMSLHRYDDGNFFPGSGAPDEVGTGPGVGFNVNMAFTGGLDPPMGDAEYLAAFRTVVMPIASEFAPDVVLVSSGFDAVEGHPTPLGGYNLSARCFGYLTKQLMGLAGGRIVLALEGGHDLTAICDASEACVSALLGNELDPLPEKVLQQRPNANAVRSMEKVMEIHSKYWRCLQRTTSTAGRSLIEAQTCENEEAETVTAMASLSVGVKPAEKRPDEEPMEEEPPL

## O=C(CCCCCCNC(=O)c1cc2cc(-c3cn[nH]c3)ccc2s1)NO
[1]
  Activity: Non-Toxic
Histone deacetylase 1
  IC50: 9.09 nM
[2]
  half-life: 1340 min
4T1 [3]
  Activity: Active
MDA-MB-231 [4]
  Activity: Active
4T1 [5]
  fold change (FC): 1.21
Histone deacetylase 11
  IC50: > 10 µM
Mus musculus
  Activity: Active
MDA-MB-231 [6]
  Activity: Active
[7]
  logD: 3.29
4T1 [8]
  inhibition in vivo at 25 mg/kg: 45%
[9]
  AUC(0-inf): 5.95 ng·h/mL
4T1 [10]
  inhibition in vivo at 50 mg/kg: 69.4%
Histone deacetylase 9
  IC50: > 10 µM
Histone deacetylase 4
  IC50: > 10 µM
4T1 [11]
  Activity: Active
[12]
  solubility: 0.695 µg/mL (≈ 1.8 µM)
Histone deacetylase 8
  IC50: 7.69 nM
MDA-MB-231 [13]
  Activity: Active
4T1 [14]
  fold change (FC): 2.3
4T1 [15]
  fold change (FC): 1.82
[16]
  Activity: Non-Toxic
Histone deacetylase 3
  IC50: 6.26 nM
